Assay results: US5324502A, “Radiopharmaceuticals for imaging the heart” (priority 1992, dated 1994)
Like-named read-outs stand apart in the source and are kept apart here.

Legend:
[1] = Octanol/water partition coefficient of radiolabeled gallium complexes; format: physicochemical
Experimental: Octanol/water partition coefficients were measured by vortex mixing 1 mL of 1-octanol and 1 mL of isotonic Tris buffer (pH 7.0) with a 1-5 μL sample of the radiolabeled gallium complex. Following centrifugation at >1200 g for 5 minutes, the octanol and aqueous phases were sampled and counted in an automatic well counter.

[2] = rat, i.v.; for % injected dose in heart, 1 min / % injected dose in heart, 2 h: preliminary studies
Experimental: The gallium-67 complexes are prepared by ligand exchange from gallium-67 chloride, employing the tris(acetylacetonato)gallium(III) complex as an intermediate. The Ga-67 acetylacetonate in ethanol is reacted with the chelating ligand or ligand precursor at elevated temperature to form rapidly the desired gallium radiopharmaceutical. […] The biodistribution of several radiopharmaceuticals was determined in rats following intravenous injection using techniques previously described (M. A. Green, Nuclear Medicine and Biology 14:59-61, 1987; E. John and M. A. Green, J. Medicinal Chemistry, 33:1764-1770, 1990).
Under ether anesthesia, 1 to 3 μCi (0.1-0.2 mL) of no-carrier-added Ga-67 compound was administered by bolus injection into the femoral vein of male Sprague-Dawley rats. The ether anesthetized rats were sacrificed by decapitation at given time intervals post-injection, organs of interest were removed, weighed, and the gallium-67 activity counted. The biodistribution was calculated as a percentage of the injected dose per gram of tissue and percentage of injected dose per organ for each sample.

Compound: ^67 GaL^+ L = [(4,6-MeO2 Sal)2 DM-BAPEN, ^67 GaL^+ L = [bis(4,6-dimethoxysalicylaldimino)-N,N'-bis(2,2'-dimethyl-3-aminopropyl)-ethylenediamine]]
- log P ([1]; 1-octanol / isotonic Tris buffer pH 7.0): 2.73
- % Injected Dose per Gram Tissue, Blood ([2]; 1 min): 1.30 ± 0.45 % Injected Dose per Gram Tissu
- % Injected Dose per Gram Tissue, Brain ([2]; 1 min): 0.06 ± 0.01 % Injected Dose per Gram Tissu
- % Injected Dose per Gram Tissue, Heart ([2]; 1 min): 1.31 ± 0.17 % Injected Dose per Gram Tissu
- % Injected Dose per Gram Tissue, Kidney (one) ([2]; 1 min): 10.62 ± 0.94 % Injected Dose per Gram Tissu
- % Injected Dose per Gram Tissue, Liver ([2]; 1 min): 5.82 ± 0.93 % Injected Dose per Gram Tissu
- % Injected Dose per Gram Tissue, Lungs ([2]; 1 min): 1.24 ± 0.20 % Injected Dose per Gram Tissu
- % Injected Dose per Gram Tissue, Spleen ([2]; 1 min): 1.59 ± 0.57 % Injected Dose per Gram Tissu
- % Injected Dose per Organ, Blood ([2]; 1 min): 18.76 ± 6.91 % Injected Dose per Organ
- % Injected Dose per Organ, Brain ([2]; 1 min): 0.10 ± 0.02 % Injected Dose per Organ
- % Injected Dose per Organ, Heart ([2]; 1 min): 1.03 ± 0.17 % Injected Dose per Organ
- % Injected Dose per Organ, Kidney (one) ([2]; 1 min): 8.33 ± 0.80 % Injected Dose per Organ
- % Injected Dose per Organ, Liver ([2]; 1 min): 50.62 ± 5.72 % Injected Dose per Organ
- % Injected Dose per Organ, Lungs ([2]; 1 min): 1.63 ± 0.47 % Injected Dose per Organ
- % Injected Dose per Organ, Spleen ([2]; 1 min): 1.07 ± 0.35 % Injected Dose per Organ
- % injected dose in heart, 1 min ([2]; 1 min): 1.03 ± 0.17 % injected dose
- % Injected Dose per Gram Tissue, Blood ([2]; 15 min): 0.13 ± 0.01 % Injected Dose per Gram Tissu
- % Injected Dose per Gram Tissue, Brain ([2]; 15 min): 0.03 ± 0.01 % Injected Dose per Gram Tissu
- % Injected Dose per Gram Tissue, Heart ([2]; 15 min): 1.23 ± 0.07 % Injected Dose per Gram Tissu
- % Injected Dose per Gram Tissue, Kidney (one) ([2]; 15 min): 10.49 ± 0.92 % Injected Dose per Gram Tissu
- % Injected Dose per Gram Tissue, Liver ([2]; 15 min): 3.92 ± 0.20 % Injected Dose per Gram Tissu
- % Injected Dose per Gram Tissue, Lungs ([2]; 15 min): 0.63 ± 0.03 % Injected Dose per Gram Tissu
- % Injected Dose per Gram Tissue, Spleen ([2]; 15 min): 1.96 ± 0.32 % Injected Dose per Gram Tissu
- % Injected Dose per Organ, Blood ([2]; 15 min): 1.97 ± 0.15 % Injected Dose per Organ
- % Injected Dose per Organ, Brain ([2]; 15 min): 0.04 ± 0.01 % Injected Dose per Organ
- % Injected Dose per Organ, Heart ([2]; 15 min): 0.93 ± 0.04 % Injected Dose per Organ
- % Injected Dose per Organ, Kidney (one) ([2]; 15 min): 8.77 ± 0.60 % Injected Dose per Organ
- % Injected Dose per Organ, Liver ([2]; 15 min): 36.83 ± 2.91 % Injected Dose per Organ
- % Injected Dose per Organ, Lungs ([2]; 15 min): 0.75 ± 0.05 % Injected Dose per Organ
- % Injected Dose per Organ, Spleen ([2]; 15 min): 1.25 ± 0.20 % Injected Dose per Organ
- % Injected Dose per Gram Tissue, Blood ([2]; 120 min): 0.03 ± 0.01 % Injected Dose per Gram Tissu
- % Injected Dose per Gram Tissue, Brain ([2]; 120 min): 0.02 ± 0.01 % Injected Dose per Gram Tissu
- % Injected Dose per Gram Tissue, Heart ([2]; 120 min): 1.36 ± 0.09 % Injected Dose per Gram Tissu
- % Injected Dose per Gram Tissue, Kidney (one) ([2]; 120 min): 6.86 ± 0.54 % Injected Dose per Gram Tissu
- % Injected Dose per Gram Tissue, Liver ([2]; 120 min): 0.42 ± 0.02 % Injected Dose per Gram Tissu
- % Injected Dose per Gram Tissue, Lungs ([2]; 120 min): 0.58 ± 0.06 % Injected Dose per Gram Tissu
- % Injected Dose per Gram Tissue, Spleen ([2]; 120 min): 1.59 ± 0.16 % Injected Dose per Gram Tissu
- % Injected Dose per Organ, Blood ([2]; 120 min): 0.45 ± 0.03 % Injected Dose per Organ
- % Injected Dose per Organ, Brain ([2]; 120 min): 0.04 ± 0.01 % Injected Dose per Organ
- % Injected Dose per Organ, Heart ([2]; 120 min): 0.01 ± 0.06 % Injected Dose per Organ
- % Injected Dose per Organ, Kidney (one) ([2]; 120 min): 5.40 ± 0.24 % Injected Dose per Organ
- % Injected Dose per Organ, Liver ([2]; 120 min): 3.91 ± 0.19 % Injected Dose per Organ
- % Injected Dose per Organ, Lungs ([2]; 120 min): 0.64 ± 0.06 % Injected Dose per Organ
- % Injected Dose per Organ, Spleen ([2]; 120 min): 0.97 ± 0.07 % Injected Dose per Organ
- % injected dose in heart, 2 h [2]: 1.01 ± 0.06 % injected dose
- Heart/Blood ([2]; ratio, 1 min): 1.11 ± 0.40
- Heart/Liver ([2]; ratio, 1 min): 0.23 ± 0.06
- Heart/Lungs ([2]; ratio, 1 min): 1.07 ± 0.12
- Heart/Blood ([2]; ratio, 15 min): 9.65 ± 0.53
- Heart/Liver ([2]; ratio, 15 min): 0.32 ± 0.02
- Heart/Lungs ([2]; ratio, 15 min): 1.96 ± 0.20
- Heart/Blood ([2]; ratio, 120 min): 44.46 ± 1.63
- Heart/Liver ([2]; ratio, 120 min): 3.24 ± 0.07
- Heart/Lungs ([2]; ratio, 120 min): 2.34 ± 0.14

Compound: COc1cc([O-])c(C=NCCCNCCNCCCN=Cc2c([O-])cc(OC)cc2OC)c(OC)c1.[67Ga+3] [(4,6-MeO2 Sal)2 BAPEN]
- log P ([1]; octanol/tris buffer, pH 7): 1.68
- % Injected Dose per Gram Tissue, Blood ([2]; 1 min): 0.66 ± 0.14 % Injected Dose per Gram Tissu
- % Injected Dose per Gram Tissue, Brain ([2]; 1 min): 0.03 ± 0.01 % Injected Dose per Gram Tissu
- % Injected Dose per Gram Tissue, Heart ([2]; 1 min): 1.52 ± 0.24 % Injected Dose per Gram Tissu
- % Injected Dose per Gram Tissue, Kidney (one) ([2]; 1 min): 6.40 ± 0.92 % Injected Dose per Gram Tissu
- % Injected Dose per Gram Tissue, Liver ([2]; 1 min): 4.72 ± 0.82 % Injected Dose per Gram Tissu
- % Injected Dose per Gram Tissue, Lungs ([2]; 1 min): 0.81 ± 0.16 % Injected Dose per Gram Tissu
- % Injected Dose per Gram Tissue, Spleen ([2]; 1 min): 0.61 ± 0.09 % Injected Dose per Gram Tissu
- % injected dose in heart, 1 min ([2]; 1 min): 1.04 ± 0.12 % injected dose
- % Injected Dose Per Gram of Tissue, Blood ([2]; 5 min): 0.11 ± 0.01 % Injected Dose Per Gram of Tissue
- % Injected Dose Per Gram of Tissue, Brain ([2]; 5 min): 0.01 ± 0.00 % Injected Dose Per Gram of Tissue
- % Injected Dose Per Gram of Tissue, Heart ([2]; 5 min): 1.45 ± 0.20 % Injected Dose Per Gram of Tissue
- % Injected Dose Per Gram of Tissue, Kidney (1) ([2]; 5 min): 6.10 ± 0.53 % Injected Dose Per Gram of Tissue
- % Injected Dose Per Gram of Tissue, Liver ([2]; 5 min): 4.32 ± 0.53 % Injected Dose Per Gram of Tissue
- % Injected Dose Per Gram of Tissue, Lungs ([2]; 5 min): 0.55 ± 0.05 % Injected Dose Per Gram of Tissue
- % Injected Dose Per Gram of Tissue, Spleen ([2]; 5 min): 0.52 ± 0.15 % Injected Dose Per Gram of Tissue
- % Injected Dose per Gram Tissue, Blood ([2]; 15 min): 0.07 ± 0.01 % Injected Dose per Gram Tissu
- % Injected Dose per Gram Tissue, Brain ([2]; 15 min): 0.01 ± 0.00 % Injected Dose per Gram Tissu
- % Injected Dose per Gram Tissue, Heart ([2]; 15 min): 1.22 ± 0.12 % Injected Dose per Gram Tissu
- % Injected Dose per Gram Tissue, Kidney (one) ([2]; 15 min): 4.22 ± 0.30 % Injected Dose per Gram Tissu
- % Injected Dose per Gram Tissue, Liver ([2]; 15 min): 2.19 ± 0.21 % Injected Dose per Gram Tissu
- % Injected Dose per Gram Tissue, Lungs ([2]; 15 min): 0.42 ± 0.06 % Injected Dose per Gram Tissu
- % Injected Dose per Gram Tissue, Spleen ([2]; 15 min): 0.43 ± 0.06 % Injected Dose per Gram Tissu
- % Injected Dose per Gram Tissue, Blood ([2]; 120 min): 0.03 ± 0.00 % Injected Dose per Gram Tissu
- % Injected Dose per Gram Tissue, Brain ([2]; 120 min): 0.01 ± 0.00 % Injected Dose per Gram Tissu
- % Injected Dose per Gram Tissue, Heart ([2]; 120 min): 1.37 ± 0.12 % Injected Dose per Gram Tissu
- % Injected Dose per Gram Tissue, Kidney (one) ([2]; 120 min): 2.77 ± 0.24 % Injected Dose per Gram Tissu
- % Injected Dose per Gram Tissue, Liver ([2]; 120 min): 0.33 ± 0.01 % Injected Dose per Gram Tissu
- % Injected Dose per Gram Tissue, Lungs ([2]; 120 min): 0.45 ± 0.11 % Injected Dose per Gram Tissu
- % Injected Dose per Gram Tissue, Spleen ([2]; 120 min): 0.37 ± 0.06 % Injected Dose per Gram Tissu
- % injected dose in heart, 2 h [2]: 0.86 ± 0.11 % injected dose
- Heart/Blood ([2]; ratio, 1 min): 2.34 ± 0.36
- Heart/Liver ([2]; ratio, 1 min): 0.32 ± 0.03
- Heart/Lungs ([2]; ratio, 1 min): 1.88 ± 0.18
- Heart/Blood ([2]; ratio, 5 min): 13.28 ± 2.19
- Heart/Liver ([2]; ratio, 5 min): 0.34 ± 0.04
- Heart/Lung ([2]; ratio, 5 min): 2.64 ± 0.34
- Heart/Blood ([2]; ratio, 15 min): 18.10 ± 0.91
- Heart/Liver ([2]; ratio, 15 min): 0.56 ± 0.10
- Heart/Lungs ([2]; ratio, 15 min): 2.98 ± 0.53
- Heart/Blood ([2]; ratio, 120 min): 45.58 ± 3.96
- Heart/Liver ([2]; ratio, 120 min): 4.12 ± 0.44
- Heart/Lungs ([2]; ratio, 120 min): 3.27 ± 1.32
